Source: patent publication US11174251B2, “Compositions and methods for inhibition of the JAK pathway” (Rigel Pharmaceuticals, Inc., priority 2010, dated 2021)
Counter-ions that a name gives are not always drawn.

Target: T1, JAK3 (Homo sapiens, UniProt P52333)
T1 construct: The Ramos B-cell line was acquired from ATCC (ATCC Catalog No. CRL-1596); host or cells: Ramos B-cell line (human)
T1 sequence (P52333 1-1124): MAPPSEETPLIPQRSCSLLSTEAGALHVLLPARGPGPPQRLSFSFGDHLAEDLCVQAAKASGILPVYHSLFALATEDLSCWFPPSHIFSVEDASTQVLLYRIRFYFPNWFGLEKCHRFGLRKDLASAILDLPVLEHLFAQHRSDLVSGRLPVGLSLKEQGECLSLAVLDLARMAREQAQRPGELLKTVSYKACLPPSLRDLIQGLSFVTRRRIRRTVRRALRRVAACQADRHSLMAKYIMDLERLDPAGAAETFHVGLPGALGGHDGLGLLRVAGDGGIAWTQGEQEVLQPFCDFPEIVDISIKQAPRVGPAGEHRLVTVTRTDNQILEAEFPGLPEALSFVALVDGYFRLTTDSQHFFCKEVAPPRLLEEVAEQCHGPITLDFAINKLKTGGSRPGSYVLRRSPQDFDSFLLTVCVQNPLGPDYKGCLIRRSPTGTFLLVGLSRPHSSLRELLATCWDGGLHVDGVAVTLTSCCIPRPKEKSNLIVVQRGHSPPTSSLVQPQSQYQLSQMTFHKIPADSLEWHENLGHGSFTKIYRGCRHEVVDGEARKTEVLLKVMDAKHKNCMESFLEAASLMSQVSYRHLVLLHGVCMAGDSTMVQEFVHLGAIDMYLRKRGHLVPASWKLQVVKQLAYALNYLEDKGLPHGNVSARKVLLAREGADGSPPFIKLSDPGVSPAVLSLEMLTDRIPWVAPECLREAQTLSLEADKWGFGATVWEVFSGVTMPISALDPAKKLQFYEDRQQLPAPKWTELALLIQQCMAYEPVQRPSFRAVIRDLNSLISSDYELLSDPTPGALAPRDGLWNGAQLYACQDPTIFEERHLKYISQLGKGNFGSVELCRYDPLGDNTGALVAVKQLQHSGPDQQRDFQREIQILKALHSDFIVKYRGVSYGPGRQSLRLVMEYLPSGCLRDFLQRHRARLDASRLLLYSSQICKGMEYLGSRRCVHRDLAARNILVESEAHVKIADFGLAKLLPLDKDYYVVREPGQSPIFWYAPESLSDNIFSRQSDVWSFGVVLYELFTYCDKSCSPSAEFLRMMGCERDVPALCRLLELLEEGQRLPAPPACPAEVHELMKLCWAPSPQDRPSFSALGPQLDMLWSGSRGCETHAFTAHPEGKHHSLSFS
Test: Assay for CD23 expression on Ramos B-cells stimulated by IL-4 (Table IV: ability to inhibit JAK3 activity)
Assay type: cell-based
Settings: tested under conditions described in Example 3 (so in the source)
Method in brief: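 IL-4-induced CD23 surface expression on human Ramos B cells, detected by flow cytometry after 20–24 h stimulation (IL-4 final 50 units/mL). Compound or DMSO added 1 h beforehand at 37 °C; cells kept in RPMI with 5% serum.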

Compound | IC50 [nM]
Cc1cnc(Nc2cc(C)c(C#N)c(C)c2)nc1Nc1ccc2oc(=O)[nH]c2c1 [Compound I-64, 2,6-Dimethyl-4-[5-methyl-4-(2-oxo-2,3-dihydro-benzooxazol-5-ylamino)-pyrimidin-2-ylamino]-benzonitrile trifluoroacetate salt] | < 500
C=Cc1cccc(Nc2ncc(C)c(Nc3ccc4oc(=O)[nH]c4c3)n2)c1 [Compound I-65, 5-[5-Methyl-2-(3-vinyl-phenylamino)-pyrimidin-4-ylamino]-3H-benzooxazol-2-one trifluoroacetate salt] | < 500
COCCOc1c(C)ccc(Nc2ncc(Cl)c(Nc3ccc4oc(=O)[nH]c4c3)n2)c1F [Compound I-66, 5-(5-chloro-2-(2-fluoro-3-(2-methoxyethoxy)-4-methylphenylamino)pyrimidin-4-ylamino)benzo[d]oxazol-2(3H)-one trifluoroacetate salt] | < 500
COc1c(C)ccc(Nc2ncc(Cl)c(Nc3ccc4oc(=O)[nH]c4c3)n2)c1F [Compound I-67, 5-(5-chloro-2-(2-fluoro-3-methoxy-4-methylphenylamino)pyrimidin-4-ylamino)benzo[d]oxazol-2(3H)-one] | < 500
CCc1ccc(Nc2ncc(C)c(Nc3ccc4oc(=O)[nH]c4c3)n2)c(F)c1OC [Compound I-68, 5-[2-(4-Ethyl-2-fluoro-3-methoxy-phenylamino)-5-methyl-pyrimidin-4-ylamino]-3H-benzooxazol-2-one trifluoroacetate salt] | < 500
Cc1cc(Nc2ncc(F)c(Nc3ccc4oc(=O)[nH]c4c3)n2)cc(C)c1C#N [Compound I-70, 4-(5-fluoro-4-(2-oxo-2,3-dihydrobenzo[d]oxazol-5-ylamino)pyrimidin-2-ylamino)-2,6-dimethylbenzonitrile] | < 500
CCc1ccc(Nc2ncc(Cl)c(Nc3ccc4oc(=O)[nH]c4c3)n2)c(F)c1OC [Compound I-71, 5-(5-chloro-2-(4-ethyl-2-fluoro-3-methoxyphenylamino)pyrimidin-4-ylamino)benzo[d]oxazol-2(3H)-one trifluoroacetate salt] | < 500
COc1ccc(Nc2ncc(C)c(Nc3ccc4oc(=O)[nH]c4c3)n2)c(F)c1 [Compound I-75, 5-(2-(2-fluoro-4-methoxyphenylamino)-5-methylpyrimidin-4-ylamino)benzo[d]oxazol-2(3H)-one trifluoroacetate salt] | < 500
COc1ccc(Nc2ncc(Cl)c(Nc3ccc4oc(=O)[nH]c4c3)n2)c(F)c1 [Compound I-76, 5-(5-chloro-2-(2-fluoro-4-methoxyphenylamino)pyrimidin-4-ylamino)benzo[d]oxazol-2(3H)-one trifluoroacetate salt] | < 500
COCCOc1ccc(Nc2ncc(Cl)c(Nc3ccc4oc(=O)[nH]c4c3)n2)c(F)c1OCCOC [Compound I-78, 5-(5-chloro-2-(2-fluoro-3,4-bis(2-methoxyethoxy)phenylamino)pyrimidin-4-ylamino)benzo[d]oxazol-2(3H)-one trifluoroacetate salt] | < 500
Cc1cc(Nc2ncc(Cl)c(Nc3ccc4oc(=O)[nH]c4c3)n2)cc(N(C)C)c1C [Compound I-83, 5-(5-chloro-2-(3-(dimethylamino)-4,5-dimethylphenylamino)pyrimidin-4-ylamino)benzo[d]oxazol-2(3H)-one trifluoroacetate salt] | < 500
CCN(CC)c1cc(Nc2ncc(C)c(Nc3ccc4oc(=O)[nH]c4c3)n2)cc(C)c1C [Compound I-84, 5-(2-(3-(diethylamino)-4,5-dimethylphenylamino)-5-methylpyrimidin-4-ylamino)benzo[d]oxazol-2(3H)-one formate salt] | < 500
CCN(CC)c1cc(Nc2ncc(Cl)c(Nc3ccc4oc(=O)[nH]c4c3)n2)cc(C)c1C [Compound I-86, 5-(5-chloro-2-(3-(diethylamino)-4,5-dimethylphenylamino)pyrimidin-4-ylamino)benzo[d]oxazol-2(3H)-one formate salt] | < 500
Cc1cnc(Nc2cc(C)c(C)c(C)c2)nc1Nc1cc(-c2ccc3c(c2)OCO3)c2oc(=O)[nH]c2c1 [Compound I-88, 5-(2-(3,4,5-trimethylphenylamino)-5-methylpyrimidin-4-ylamino)-7-(benzo[d][1,3]dioxol-6-yl)benzo[d]oxazol-2(3H)-one] | > 10000

Next, values leading:

IC50 [nM] | Compound
< 500 | Cc1cc(Nc2ncc(Cl)c(Nc3ccc4oc(=O)[nH]c4c3)n2)cc(C)c1C#N [Compound I-69, 4-(5-chloro-4-(2-oxo-2,3-dihydrobenzo[d]oxazol-5-ylamino)pyrimidin-2-ylamino)-2,6-dimethylbenzonitrile] trifluoroacetate salt]
< 500 | Cc1cnc(Nc2cccc(C#N)c2F)nc1Nc1ccc2oc(=O)[nH]c2c1 [Compound I-72, 2-fluoro-3-(5-methyl-4-(2-oxo-2,3-dihydrobenzo[d]oxazol-5-ylamino)pyrimidin-2-ylamino)benzonitrile trifluoroacetate salt]
< 500 | N#Cc1cccc(Nc2ncc(Cl)c(Nc3ccc4oc(=O)[nH]c4c3)n2)c1F [Compound I-73, 3-(5-chloro-4-(2-oxo-2,3-dihydrobenzo[d]oxazol-5-ylamino)pyrimidin-2-ylamino)-2-fluorobenzonitrile trifluoroacetate salt]
5000 to 10000 | COC(=O)c1cnc(Nc2cc(C)c(F)c(C)c2)nc1Nc1ccc2oc(=O)[nH]c2c1 [Compound I-74, methyl 2-(4-fluoro-3,5-dimethylphenylamino)-4-(2-oxo-2,3-dihydrobenzo[d]oxazol-5-ylamino)pyrimidine-5-carboxylate trifluoroacetate salt]
< 500 | COCCOc1ccc(Nc2ncc(C)c(Nc3ccc4oc(=O)[nH]c4c3)n2)c(F)c1OCCOC [Compound I-77, 5-(2-(2-fluoro-3,4-bis(2-methoxyethoxy)phenylamino)-5-methylpyrimidin-4-ylamino)benzo[d]oxazol-2(3H)-one trifluoroacetate salt]
< 500 | Cc1cc(Nc2ncc(CO)c(Nc3ccc4oc(=O)[nH]c4c3)n2)cc(C)c1F [Compound I-79, 5-(2-(4-fluoro-3,5-dimethylphenylamino)-5-(hydroxymethyl)pyrimidin-4-ylamino)benzo[d]oxazol-2(3H)-one trifluoroacetate salt]
500 to 5000 | COc1cc(Nc2ncc(CO)c(Nc3ccc4oc(=O)[nH]c4c3)n2)cc(C)c1F [Compound I-80, 5-(2-(4-fluoro-3-methoxy-5-methylphenylamino)-5-(hydroxymethyl)pyrimidin-4-ylamino)benzo[d]oxazol-2(3H)-one trifluoroacetate salt]
< 500 | CCNc1cc(Nc2ncc(C)c(Nc3ccc4oc(=O)[nH]c4c3)n2)cc(C)c1C [Compound I-85, 5-(2-(3-(ethylamino)-4,5-dimethylphenylamino)-5-methylpyrimidin-4-ylamino)benzo[d]oxazol-2(3H)-one formate salt]
< 500 | CCNc1cc(Nc2ncc(Cl)c(Nc3ccc4oc(=O)[nH]c4c3)n2)cc(C)c1C [Compound I-87, 5-(5-chloro-2-(3-(ethylamino)-4,5-dimethylphenylamino)pyrimidin-4-ylamino)benzo[d]oxazol-2(3H)-one formate salt]
